In patent US7598258B2, “Quinoline derivatives and quinazoline derivatives inhibiting autophosphorylation of macrophage colony stimulating factor receptor” (Kirin Beer Kabushiki Kaisha, priority 2002, dated 2009) one finds IC50 data, which are given here for 21 compounds.

For this assay, the target named is T1, mouse c-fms (Mus musculus, UniProt P09581).
T1 construct: Macrophage-like cell line BAC-1.2F5 which expresses c-fms as a M-CSF receptor on cell membranes; endogenous in cells; host or cells: BAC-1.2F5 mouse macrophage-like cell line
T1 sequence (P09581 20-977): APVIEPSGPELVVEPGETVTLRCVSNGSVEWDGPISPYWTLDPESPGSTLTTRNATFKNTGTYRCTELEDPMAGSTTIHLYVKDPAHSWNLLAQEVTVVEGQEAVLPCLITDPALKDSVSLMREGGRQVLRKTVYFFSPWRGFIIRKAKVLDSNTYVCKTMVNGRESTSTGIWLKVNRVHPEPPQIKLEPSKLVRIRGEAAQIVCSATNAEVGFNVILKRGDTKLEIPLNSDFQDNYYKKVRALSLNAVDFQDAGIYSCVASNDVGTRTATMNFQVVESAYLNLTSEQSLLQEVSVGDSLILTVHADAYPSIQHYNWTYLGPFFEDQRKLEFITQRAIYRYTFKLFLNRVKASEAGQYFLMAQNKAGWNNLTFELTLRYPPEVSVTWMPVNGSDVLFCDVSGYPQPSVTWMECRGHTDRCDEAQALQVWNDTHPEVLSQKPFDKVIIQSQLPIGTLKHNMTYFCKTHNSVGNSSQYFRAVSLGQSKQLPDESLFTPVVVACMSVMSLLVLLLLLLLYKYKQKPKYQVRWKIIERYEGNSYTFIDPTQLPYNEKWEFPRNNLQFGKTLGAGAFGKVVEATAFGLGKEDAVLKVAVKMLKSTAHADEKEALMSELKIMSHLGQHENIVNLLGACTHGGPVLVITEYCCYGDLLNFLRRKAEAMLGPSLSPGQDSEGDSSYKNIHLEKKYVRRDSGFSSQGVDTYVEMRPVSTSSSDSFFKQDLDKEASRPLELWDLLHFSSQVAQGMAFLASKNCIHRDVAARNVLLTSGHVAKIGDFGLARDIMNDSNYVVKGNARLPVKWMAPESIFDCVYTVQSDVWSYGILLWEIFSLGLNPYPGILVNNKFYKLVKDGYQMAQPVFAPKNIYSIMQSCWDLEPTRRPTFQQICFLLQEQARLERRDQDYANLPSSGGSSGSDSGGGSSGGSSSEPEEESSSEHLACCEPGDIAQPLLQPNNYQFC
Kind of assay: Inhibition of c-fms autophosphorylation in macrophage-like cell line BAC-1.2F5 by M-CSF stimulation (ELISA). The conditions noted are these: BAC-1.2F5 cells, human recombinant M-CSF 50 ng/ml, read-out: c-fms autophosphorylation 50% inhibitory concentration (IC50). Type of assay: cell-based. The method, then:
Macrophage-like cell line BAC-1.2F5 which expresses c-fms as a M-CSF receptor on cell membranes (CLAUDIA M. et al., J. Cell. Physiol., 130, 420-427 (1987), “Isolation and Characterization of a Cloned Growth Factor Dependent Macrophage Cell Line, BAC1.2F5”) was cultured at 37° C. in a DMEM medium containing L-cell supernatant and 10% fetal calf serum (GIBCO BRL) in a 5% CO2 incubator until about 50 to 70% confluent. The harvested cells were inoculated into wells, each containing the same medium, in a collagen type I coat 96-well flat-bottom plate in an amount of 5.0×10^4 per well, and cultured at 37° C. for 12 hr. Thereafter, the medium was replaced with a DMEM medium containing a 0.1% fetal calf serum and cultured for 12 hr. Thereafter, a test compound dissolved in dimethyl sulfoxide was added to each well, and cells were incubated at 37° C. for one hr. Human recombinant M-CSF was added to a final concentration of 50 ng/ml, and cells were stimulated at 37° C. for 6 min. After the medium was removed, 50 μl of a solubilization buffer (20 mM HEPES (pH 7.4), 150 mM NaCl, 0.2% Triton X-100, 10% glycerol, 5 mM sodium orthovanadylate, 5 mM disodium ethylenediaminetetraacetate, and 2 mM Na4P2O7) was added thereto. The mixture was shaken at 4° C. for 2 hr to prepare a cell extract as an assay sample which was then used for an ELISA assay.
The plate for the ELISA assay was prepared as follows. Phosphate buffered saline (50 μl, pH 7.4) containing 5 μg/ml of anti-phospho-tyrosine antibody (PY20; Transduction Laboratories) was added to a microplate for ELISA (Maxisorp; purchased from NUNC), followed by standing at 4° C. overnight to be immobilized on the wells. Thereafter, each well was washed twice with 200 μl of a Ca- and Mg-free phosphate buffer containing 0.1% Tween-20 (hereinafter referred to as “PBS-T”), and 200 μl of a blocking solution (Dainippon Pharmaceutical Co. Ltd.: BlockAce) was added to each well, and the wells were then allowed to stand at room temperature for 2 hr for blocking.
Separately, phosphate buffered saline (50 μl, pH 7.4) containing 5 μg/ml of anti-phospho-tyrosine antibody (PY20; Transduction Laboratories) was added to a microplate for ELISA (Maxisorp; purchased from NUNC), followed by standing at 4° C. overnight to form a solid phase on the wells. After washing of the plate, 300 μl of a blocking solution was added, followed by standing at room temperature for 2 hr to perform blocking. After washing, the whole quantity of the cell extract was transferred to the wells, and the plate was then allowed to stand at 4° C. overnight. After washing, anti-c-fms antiserum (Upstate Biotechnology, Inc.) was allowed to react at room temperature for one hr, and, after washing, a peroxidase-labeled anti-rabbit Ig antibody (Amersham) was allowed to react at room temperature for one hr. After washing, a chromophoric substrate for peroxidase (Sumitomo Bakelite Co., Ltd.) was added thereto to initiate a reaction. After a suitable level of color development, a reaction termination solution was added to stop the reaction, and the absorbance at 450 nm was measured with a microplate reader. The c-fms phosphorylation activity for each well was determined by presuming the absorbance without the addition of the test compound and with the addition of M-CSF to be 100% c-fms phosphorylation activity and the absorbance without the addition of the test compound and M-CSF to be 0% c-fms phosphorylation activity. The concentration of the test compound was varied on several levels, the c-fms phosphorylation inhibitory rate was determined for each case, and the concentration of the test compound necessary for inhibiting 50% of c-fms phosphorylation (IC50) was calculated.
In general terms: In an ELISA, binding on a coated surface is turned into a signal by an enzyme label.

SMILES strings stand for the structures.

As for `COc1cc2nccc(Oc3ccc(NC(=O)NC(C)c4ccc(F)cc4)c(C)c3)c2cc1OC` (stereo not drawn) [Example 13, N-{4-[(6,7-Dimethoxy-4-quinolyl)oxy]-2-methylphenyl}-N′-[1-(4-fluorophenyl)ethyl]urea], the IC50 was found to be 6.1 nM.

Consider `COc1cc(Oc2ccnc3cc(OC)c(OC)cc23)ccc1NC(=O)N[C@H](C)c1ccc(F)cc1` [Example 18, N-{4-[(6,7-Dimethoxy-4-quinolyl)oxy]-2-methoxyphenyl}-N′-[(1R)-1-(4-fluorophenyl)ethyl]urea], for which the IC50 turned out to be 3.7 nM.

Turning to `COc1cc2nccc(Oc3ccc(NC(=O)N[C@H](C)c4nccs4)c(F)c3)c2cc1OC` [Example 72, N-{4-[(6,7-Dimethoxy-4-quinolyl)oxy]-2-fluorophenyl}-N′-[(1R)-1-(1,3-thiazol-2-yl)ethyl]urea], the IC50 stood at 4.9 nM. The value for `COc1cc2nccc(Oc3ccc(NC(=O)N[C@H](C)c4cccc(Br)c4)cc3OC)c2cc1OC` [Example 61, N-[(1R)-1-(3-Bromophenyl)ethyl]-N′-{4-[(6,7-dimethoxy-4-quinolyl)oxy]-3-methoxyphenyl}urea] was 44.3 nM. The value for `COc1cc2c(Oc3ccc(NC(=O)NC(C)c4ccc(F)c(F)c4)c(F)c3)ccnc2cc1OCCCN1CCOCC1` (stereo not drawn) [Example 68, N-[1-(3,4-Difluorophenyl)ethyl]-N′-(2-fluoro-4-{[6-methoxy-7-(3-morpholinopropoxy)-4-quinolyl]oxy}phenyl)urea] was 9.8 nM; that for `COc1ccc([C@H](C)NC(=O)Nc2ccc(Oc3ccnc4cc(OC)c(OC)cc34)cc2)cc1` [Example 53, N-{4-[(6,7-Dimethoxy-4-quinolyl)oxy]phenyl}-N′-[(1S)-1-(4-methoxyphenyl)ethyl]urea] was 2.7 nM. Take `COc1cc2nccc(Oc3ccc(NC(=O)NC(C)c4nccs4)c(C(F)(F)F)c3)c2cc1OC` (stereo not drawn) [Example 83, N-[4-[(6,7-Dimethoxy-4-quinolyl)oxy]-2-(trifluoromethyl)phenyl]-N′-[1-(1,3-thiazol-2-yl)ethyl]urea]: the IC50 stood at 10.2 nM.

On to `COc1cc2nccc(Oc3ccc(NC(=O)N[C@@H](C)c4nccs4)cc3)c2cc1OC` [Example 78, N-{4-[(6,7-Dimethoxy-4-quinolyl)oxy]phenyl}-N′-[(S)-1-(1,3-thiazol-2-yl)ethyl]urea], for which the IC50 was 2.9 nM. In the case of `COc1cc2c(Oc3ccc(NC(=O)NC(C)c4ccc(F)c(F)c4)cc3F)ccnc2cc1OCCCN1CCOCC1` (stereo not drawn) [Example 65, N-[1-(3,4-Difluorophenyl)ethyl]-N′-(3-fluoro-4-{[6-methoxy-7-(3-morpholinopropoxy)-4-quinolyl]oxy}phenyl)urea] it was 13.9 nM. For `COc1cc2nccc(Oc3ccc(NC(=O)NC(C)c4ccc(F)cc4)cc3OC)c2cc1OC` (stereo not drawn) [Example 22, N-{4-[(6,7-Dimethoxy-4-quinolyl)oxy]-3-methoxyphenyl}-N′-[1-(4-fluorophenyl)ethyl]urea], the IC50 came to 7.7 nM. On to `COc1cc2nccc(Oc3ccc(NC(=O)N[C@H](C)c4ccc(F)cc4)c(C)c3C)c2cc1OC` [Example 27, N-{4-[(6,7-Dimethoxy-4-quinolyl)oxy]-2,3-dimethylphenyl}-N′-[(1R)-1-(4-fluorophenyl)ethyl]urea], for which the IC50 is 7.6 nM. In the case of `COc1cc2nccc(Oc3cc(C)c(NC(=O)N[C@H](C)c4ccc(F)cc4)cc3C)c2cc1OC` [Example 9, N-{4-[(6,7-Dimethoxy-4-quinolyl)oxy]-2,5-dimethylphenyl}-N′-[(1R)-1-(4-fluorophenyl)ethyl]urea] it was 17.4 nM; in that of `COc1cc2nccc(Oc3ccc(NC(=O)N[C@@H](C)c4ccc(F)cc4)c(C)c3)c2cc1OC` [Example 14, N-{4-[(6,7-Dimethoxy-4-quinolyl)oxy]-2-methylphenyl}-N′-[(1S)-1-(4-fluorophenyl)ethyl]urea], 13 nM; in that of `COc1cc2nccc(Oc3ccc(NC(=O)N[C@@H](C)c4ccc(F)cc4)cc3OC)c2cc1OC` [Example 23, N-{4-[(6,7-Dimethoxy-4-quinolyl)oxy]-3-methoxyphenyl}-N′-[(1S)-1-(4-fluorophenyl)ethyl]urea], 10.2 nM. `COc1cc2nccc(Oc3ccc(NC(=O)N[C@H](C)c4cccc(Br)c4)c(Cl)c3)c2cc1OC` [Example 55, N-[(1R)-1-(3-Bromophenyl)ethyl]-N′-{2-chloro-4-[(6,7-dimethoxy-4-quinolyl)oxy]phenyl}urea]: the IC50 amounted to 45.4 nM.

For `COc1cc2c(Oc3ccc(NC(=O)NC(C)c4ccc(F)cc4F)c(F)c3)ccnc2cc1OCCCN1CCOCC1` (stereo not drawn) [Example 69, N-[1-(2,4-Difluorophenyl)ethyl]-N′-(2-fluoro-4-{[6-methoxy-7-(3-morpholinopropoxy)-4-quinolyl]oxy}phenyl)urea], the IC50 was found to be 11.5 nM. In the case of `COc1cc2nccc(Oc3ccc(NC(=O)N[C@@H](C)c4ccc(F)cc4)c(C)c3C)c2cc1OC` [Example 26, N-{4-[(6,7-Dimethoxy-4-quinolyl)oxy]-2,3-dimethylphenyl}-N′-[(1S)-1-(4-fluorophenyl)ethyl]urea] it was 16.3 nM; in that of `COc1cc2c(Oc3ccc(NC(=O)NC(C)c4ccc(F)cc4)c(F)c3)ccnc2cc1OCCCN1CCOCC1` (stereo not drawn) [Example 67, N-(2-Fluoro-4-{[6-methoxy-7-(3-morpholinopropoxy)-4-quinolyl]oxy}phenyl)-N′-[1-(4-fluorophenyl)ethyl]urea], 5.7 nM. In the case of `COc1cc2nccc(Oc3cc(C)c(NC(=O)NC(C)c4ccc(F)cc4)cc3C)c2cc1OC` (stereo not drawn) [Example 7, N-{4-[(6,7-Dimethoxy-4-quinolyl)oxy]-2,5-dimethylphenyl}-N′-[1-(4-fluorophenyl)ethyl]urea] it was 20.2 nM; in that of `COc1cc2nccc(Oc3ccc(NC(=O)NC(C)c4ccc(F)cc4)c(Cl)c3)c2cc1OC` (stereo not drawn) [Example 4, N-{2-Chloro-4-[(6,7-dimethoxy-4-quinolyl)oxy]phenyl}-N′-[1-(4-fluorophenyl)ethyl]urea], 4 nM. Consider `COc1cc2nccc(Oc3ccc(NC(=O)N[C@H](C)c4cccc(Br)c4)c(C)c3)c2cc1OC` [Example 58, N-[(1R)-1-(3-Bromophenyl)ethyl]-N′-{4-[(6,7-dimethoxy-4-quinolyl)oxy]-2-methylphenyl}urea], for which the IC50 was determined as 80.9 nM.
